In patent US20030018061A1, “Novel remedies with the use of beta 3 agonist” (priority 2000, published 2003):

Experiments:
[1] = system: Mice fasted overnight, glucose loaded; test: Antidiabetic effect (II): plasma glucose after glucose loading in fasted mice, glibenclamide and β3 agonist; assay type: in vivo; conditions: 1 hour after glucose load (1 g/kg s.c.), oral GLI 10 mg/kg, compound a 10 mg/kg, d 0.3 mg/kg, e, g 3 mg/kg, i 1 mg/kg, vs glucose loading only
Procedure: Mice fasted overnight were orally administered with glibenclamide (GLI: 10 mg/kg), a β3 agonist (compound a: 10 mg/kg; compound c: 0.3 mg/kg; compound d: 0.3 mg/kg; compound e: 3 mg/kg; compound g: 3 mg/kg; compound h: 1 mg/kg; compound i: 1 mg/kg), or GLI and a β3 agonist (compound a, compound c, compound d, compound e, compound g, compound h, and compound i) in combination (each dosage was the same as the aforementioned), and immediately glucose (1 g/kg, subcutaneous injection) was loaded. Blood was collected after 1 hour, and the amount of glucose contained in blood plasma was measured.
In this combined use, hypoglycemia, which is a side effect of glibenclamide, was not observed.

[2] = system: Mice induced with obesity by feeding with a high fat diet; test: Antiobestic effect (II): body weight of high fat diet obese mice, orlistat and β3 agonist; assay type: in vivo; conditions: oral, 2 weeks; orlistat 1 mg/kg; compound c, d 0.3 mg/kg; e, g 3 mg/kg; h, i 1 mg/kg; alone or combined at same doses
Procedure: (§1) Mice induced with obesity by feeding with a high fat diet for 2 months were orally administered with orlistat (1 mg/kg), a β3 agonist (compound c: 0.3 mg/kg; compound d: 0.3 mg/kg; compound e: 3 mg/kg; compound g: 3 mg/kg; compound h: 1 mg/kg; compound i: 1 mg/kg), or orlistat and a β3 agonist (compound c, compound d, compound e, compound g, compound h, and compound i) in combination (each dosage was the same as the aforementioned) for 2 weeks and bred, and body weight was measured.

[3] = system: human urinary bladder compression muscle; test: Relaxation of carbachol-contracted human urinary bladder compression muscle; assay type: cell-based; conditions: for relaxation of bladder compression muscle, combination with propiverine: 10^−6 M propiverine plus compound (a, b, f, g 10^−9 M; c, d 10^−10 M; e, h, i 10^−8 M); for relaxation of bladder compression muscle, combination with propiverine / relaxation of bladder compression muscle, combination with oxybutynin / relaxation of bladder compression muscle, combination with tolterodine: in comparison with each compound alone; for relaxation of bladder compression muscle, combination with oxybutynin: 10^−9 M oxybutynin plus compound (a, b, f, g 10^−9 M; c 10^−10 M; e, h, i 10^−8 M); for relaxation of bladder compression muscle, combination with tolterodine: 10^−9 M tolterodine plus compound (a, b, f, g 10^−9 M; d 10^−10 M; e, h, i 10^−8 M); for concentration at which the bladder compression muscle was significantly relaxed / concentration at which the muscle was not relaxed significantly: contraction provoked by carbachol (0.5×10^−6 M), each compound alone
[4] = system: Genetically diabetic mice; test: Antidiabetic effect (III): genetically diabetic mice, rosiglitazone and β3 agonist; assay type: in vivo; conditions: oral, 2 weeks; ROS 1 mg/kg; compound c, d 0.3 mg/kg; e, g 3 mg/kg; h, i 1 mg/kg; alone or combined
Procedure: Genetically diabetic mice were orally administered with rosiglitazone (ROS: 1 mg/kg), a β3 agonist (compound c: 0.3 mg/kg; compound d: 0.3 mg/kg; compound e: 3 mg/kg; compound g: 3 mg/kg; compound h: 1 mg/kg; compound i: 1 mg/kg), or ROS and a β3 agonist (compound c, compound d, compound e, compound g, compound h, and compound i) in combination (each dosage was the same as the aforementioned) for 2 weeks. Blood was collected thereafter, and the amount of glucose contained in blood plasma was measured.

Mice [5] = test: Antilipemic effect (II): plasma triglyceride in mice, bezafibrate and β3 agonist; assay type: in vivo; conditions: oral, 2 weeks; administered solely: BEZ 3 mg/kg; compound c, d 0.3 mg/kg; e, g 3 mg/kg; h, i 1 mg/kg
Procedure: Mice were orally administered with bezafibrate (BEZ: 3 mg/kg), a β3 agonist (compound c: 0.3 mg/kg; compound d: 0.3 mg/kg; compound e: 3 mg/kg; compound g: 3 mg/kg; compound h: 1 mg/kg; compound i: 1 mg/kg), or BEZ and a β3 agonist (compound c, compound d, compound e, compound g, compound h, and compound i) in combination (each dosage was the same as the aforementioned) for 2 weeks. Blood was collected thereafter, and the amount of triglyceride contained in blood plasma was measured.

[6] = system: Mice induced with obesity by feeding with a high fat diet; test: Antiobestic effect (I): body weight of high fat diet obese mice, sibutramine and β3 agonist; assay type: in vivo; conditions: oral, 2 weeks; SIB 1 mg/kg; compound c, d 0.3 mg/kg; e, g 3 mg/kg; h, i 1 mg/kg; alone or combined at same doses
Procedure: as §1, with “sibutramine (SIB: 1” for “orlistat (1”, “SIB” for “orlistat”

[7] = system: Genetically diabetic mice; test: Antidiabetic effect (IV): genetically diabetic mice, acarbose and β3 agonist; assay type: in vivo; conditions: oral, 2 weeks; ACA 1 mg/kg; compound c, d 0.3 mg/kg; e, g 3 mg/kg; h, i 1 mg/kg; alone or combined
Procedure: Genetically diabetic mice were orally administered with acarbose (ACA: 1 mg/kg), a β3 agonist (compound c: 0.3 mg/kg; compound d: 0.3 mg/kg; compound e: 3 mg/kg; compound g: 3 mg/kg; compound h: 1 mg/kg; compound i: 1 mg/kg), or ACA and a β3 agonist (compound c, compound d, compound e, compound g, compound h, and compound i) in combination (each dosage was the same as the aforementioned) for 2 weeks. Blood was collected thereafter, and the amount of glucose contained in blood plasma was measured.

Mice [8] = test: Antidiabetic effect: plasma glucose in mice, insulin and β3 agonist; assay type: in vivo; conditions: 30 min after dosing; INS 0.2 U/kg intraperitoneal; oral compound a 10 mg/kg; c, d 0.3 mg/kg; e, g 3 mg/kg; h, i 1 mg/kg; alone or combined
Procedure: Mice were administered with insulin (INS: 0.2 U/kg, intraperitoneal injection), a β3 agonist (oral administration of compound a: 10 mg/kg; compound c: 0.3 mg/kg; compound d: 0.3 mg/kg; compound e: 3 mg/kg; compound g: 3 mg/kg; compound h: 1 mg/kg; compound i: 1 mg/kg, respectively), or INS and a β3 agonist (compound a, compound c, compound d, compound e, compound g, compound h, and compound i) in combination (each dosage and administration route was the same as the aforementioned), blood was collected after 30 min, and the amount of glucose contained in blood plasma was measured.

Compound	blood glucose level (glucose in blood plasma) [1]	body weight [2]	relaxation of bladder compression muscle, combination with propiverine [3]	relaxation of bladder compression muscle, combination with oxybutynin [3]	relaxation of bladder compression muscle, combination with tolterodine [3]	concentration at which the bladder compression muscle was significantly relaxed [3]	concentration at which the muscle was not relaxed significantly [3]	blood glucose level (glucose in blood plasma) [4]	plasma triglyceride level (Mice [5])	body weight [6]	blood glucose level (glucose in blood plasma) [7]	blood glucose level (glucose in blood plasma) (Mice [8])
CS(=O)(=O)Nc1cc([C@@H](O)CNCCOc2ccc3c(c2)[nH]c2ccccc23)ccc1Br [compound i, (R)-N-[5-[2-[2-(9H-carbazole-2-iloxy)ethylamino]-1-hydroxyethyl]-2-bromophenyl]methanesulfonamide]	almost no difference in the blood glucose level	almost no change in body weight	relaxed significantly	relaxed significantly	relaxed significantly	10^−6 M	10^−8 M	no difference in the blood glucose level	no difference	almost no change in body weight	no difference	no change in blood glucose level
COc1ccc(Cl)cc1C(=O)NCCc1ccc(S(=O)(=O)NC(=O)NC2CCCCC2)cc1 [GLI, glibenclamide, reference compound]	almost no difference in the blood glucose level											
CCCCCCCCCCC[C@@H](C[C@@H]1OC(=O)[C@H]1CCCCCC)OC(=O)[C@H](CC(C)C)NC=O [orlistat, reference compound]		almost no change in body weight										
CS(=O)(=O)Nc1cc([C@@H](O)CNCCOc2ccc3c4c([nH]c3c2)CCCC4)ccc1O [compound b, (R)-N-[5-[2-[2-(5,6,7,8-tetrahydro-9H-carbazole-2-iloxy)ethylamino]-1-hydroxyethyl]-2-hydroxyphenyl]methanesulfonamide]			relaxed significantly	relaxed significantly	relaxed significantly	10^−7 M	10^−9 M					
CS(=O)(=O)Nc1cc([C@@H](O)CNCCOc2ccc3c(c2)[nH]c2ccccc23)ccc1Cl [compound h, (R)-N-[5-[2-[2-(9H-carbazole-2-iloxy)ethylamino]-1-hydroxyethyl]-2-chlorophenyl]methanesulfonamide]	almost no difference in the blood glucose level	almost no change in body weight	relaxed significantly	relaxed significantly	relaxed significantly	10^−6 M	10^−8 M	no difference in the blood glucose level	no difference	almost no change in body weight	no difference	no change in blood glucose level
insulin [reference compound]												no change in blood glucose level
CS(=O)(=O)Nc1cccc([C@@H](O)CNCCOc2ccc3c(c2)[nH]c2ccccc23)c1 [compound e, (R)-N-[3-[2-[2-(9H-carbazole-2-iloxy)ethylamino]-1-hydroxyethyl]phenyl]methanesulfonamide]	almost no difference in the blood glucose level	almost no change in body weight	relaxed significantly	relaxed significantly	relaxed significantly	10^−6 M	10^−8 M	no difference in the blood glucose level	no difference	almost no change in body weight	no difference	no change in blood glucose level
CC(C)CC(N(C)C)C1(c2ccc(Cl)cc2)CCC1 (stereo not drawn) [SIB, sibutramine, reference compound]										almost no change in body weight		
CN(C)S(=O)(=O)Nc1cc([C@@H](O)CNCCOc2ccc3c(c2)[nH]c2ccccc23)ccc1O [compound f, (R)-N′-[5-[2-[2-(9H-carbazole-2-iloxy)ethylamino]-1-hydroxyethyl]-2-hydroxyphenyl]-N,N-dimethyl sulfonyl amide]			relaxed significantly	relaxed significantly	relaxed significantly	10^−7 M	10^−9 M					
CS(=O)(=O)Nc1cccc([C@@H](O)CNCCOc2ccc3c(c2)[nH]c2cc(O)ccc23)c1 [compound a, (R)-N-[3-[2-[2-(7-hydroxy-9H-carbazole-2-iloxy)ethylamino]-1-hydroxyethyl]phenyl]methanesulfonamide]	almost no difference in the blood glucose level		relaxed significantly	relaxed significantly	relaxed significantly	10^−7 M	10^−9 M					no change in blood glucose level
